From US10327448B2, “Bacterium of Bacillus genus and uses thereof” (priority 2014, dated 2019)
Positions of bridges follow the written chain, without caps; N, C: chain ends. Non-standard residues stand in square brackets, D forms with d. Residues, ends and D or L forms follow the SMILES beside them. *: point of attachment. Ileψ(thiazoline)Cys = CC[C@H](C)[C@H](N)C1=N[C@H](C(=O)*)CS1; dOrn = NCCC[C@@H](N)C(=O)O

Tested on: Bacillus subtilis ssp. shriramensis (MTCC-5674)
Test: Antibiotic sensitivity test (antibiotic discs on T3 agar); for Result: key: RES - Resistant; INT - Intermediate; SEN - Sensitive
Type: cell-based
Details: antibiotic disc on T3 agar, 30° C. for 24 hours; for Result: judged against Standards
Description: Different antibiotic discs were placed on the surface of the T3 agar plates labelled with the respective antibiotic. The plates were incubated at 30° C. for 24 hours.

| Compound | Zone [mm] | antibiotic sensitivity of the bacterium, in words | Result |
| --- | --- | --- | --- |
| Cc1onc(-c2ccccc2)c1C(=O)N[C@@H]1C(=O)N2[C@@H]1SC(C)(C)[C@@H]2C(=O)O [Oxacillin] | 11 | intermediate resistance | INT |
| CO[C@@H]1[C@@H](OC(N)=O)[C@@H](O)[C@H](Oc2ccc3c(O)c(NC(=O)c4ccc(O)c(CC=C(C)C)c4)c(=O)oc3c2C)OC1(C)C [Novobiocin] | 24 | sensitive | SEN |
| Gentamicin | 20 | sensitive | SEN |
| NC[C@H]1O[C@H](O[C@H]2[C@H](O)[C@@H](O[C@H]3O[C@H](CO)[C@@H](O)[C@H](N)[C@H]3O)[C@H](N)C[C@@H]2N)[C@H](N)C[C@@H]1O [Tobramycin] | 15 | sensitive | SEN |
| CC[C@H]1OC(=O)[C@H](C)[C@@H](O[C@H]2C[C@@](C)(OC)[C@@H](O)[C@H](C)O2)[C@H](C)[C@@H](O[C@@H]2O[C@H](C)C[C@H](N(C)C)[C@H]2O)[C@](C)(O)C[C@@H](C)CN(C)[C@H](C)[C@@H](O)[C@]1(C)O [Azithromycin] | 10 | resistant | RES |
| O=C(N[C@H](CO)[C@H](O)c1ccc([N+](=O)[O-])cc1)C(Cl)Cl [Chloramphenicol] | 25 | sensitive | SEN |
| NCC[C@H](O)C(=O)N[C@@H]1C[C@H](N)[C@@H](O[C@H]2O[C@H](CN)[C@@H](O)[C@H](O)[C@H]2O)[C@H](O)[C@H]1O[C@H]1O[C@H](CO)[C@@H](O)[C@H](N)[C@H]1O [Amikacin] | 15 | intermediate resistance | INT |
| Neomycin | 12 | resistant | RES |
| NC[C@H]1O[C@H](O[C@H]2[C@H](O)[C@@H](O[C@H]3O[C@H](CO)[C@@H](O)[C@H](N)[C@H]3O)[C@H](N)C[C@@H]2N)[C@H](O)[C@@H](O)[C@@H]1O [Kanamycin] | 13 |  | RES |
| CCC[C@@H]1C[C@@H](C(=O)N[C@@H]([C@H]2O[C@H](SC)[C@H](O)[C@@H](O)[C@H]2O)[C@H](C)Cl)N(C)C1 [Clindamycin] | 10 |  |  |
| CC1(C)S[C@@H]2[C@H](NC(=O)[C@H](N)c3ccc(O)cc3)C(=O)N2[C@H]1C(=O)O [Amoxicillin] | 0 | resistant | RES |
| [H]/N=C(/N)N[C@H]1[C@H](O)[C@@H](O)[C@H](O[C@@H]2O[C@@H](C)[C@](O)(C=O)[C@H]2O[C@@H]2O[C@@H](CO)[C@H](O)[C@@H](O)[C@@H]2NC)[C@@H](N/C(N)=N\[H])[C@@H]1O [Streptomycin] | 12 | intermediate resistance | INT |
| CN[C@H](CC(C)C)C(=O)N[C@H]1C(=O)N[C@@H](CC(N)=O)C(=O)N[C@H]2C(=O)N[C@H]3C(=O)N[C@H](C(=O)N[C@H](C(=O)O)c4cc(O)cc(O)c4-c4cc3ccc4O)[C@H](O)c3ccc(c(Cl)c3)Oc3cc2cc(c3O[C@@H]2O[C@H](CO)[C@@H](O)[C@H](O)[C@H]2O[C@H]2C[C@](C)(N)[C@H](O)[C@H](C)O2)Oc2ccc(cc2Cl)[C@H]1O [Vancomycin] | 20 | sensitive | SEN |
| CC(=O)OCC1=C(C(=O)O)N2C(=O)[C@@H](NC(=O)Cc3cccs3)[C@H]2SC1 [Cephalothin] | 40 | sensitive | SEN |
| CC1(C)S[C@@H]2[C@H](NC(=O)[C@H](N)c3ccccc3)C(=O)N2[C@H]1C(=O)O [Ampicillin] | 0 | resistant | RES |
| Cc1noc(NS(=O)(=O)c2ccc(N)cc2)c1C [Sulfisoxazole] | 33 | sensitive | SEN |
| CCN1CCN(c2cc3c(cc2F)c(=O)c(C(=O)O)cn3C2CC2)CC1 [Enrofloxacin] | 41 | resistant | RES |
| CC[C@H](C)[C@H](N)C1=N[C@H](C(=O)N[C@@H](CC(C)C)C(=O)N[C@H](CCC(=O)O)C(=O)N[C@H](C(=O)N[C@H]2CCCCNC(=O)[C@H](CC(N)=O)NC(=O)[C@@H](CC(=O)O)NC(=O)[C@H](Cc3cnc[nH]3)NC(=O)[C@@H](Cc3ccccc3)NC(=O)[C@H]([C@@H](C)CC)NC(=O)[C@@H](CCCN)NC2=O)[C@@H](C)CC)CS1 [Bacitracin] ({Ileψ(thiazoline)Cys}-L[dE]IK[dOrn]I[dF]H[dD]N; lactam 4-C) | 21 | sensitive | SEN |
| CC[C@H]1OC(=O)[C@H](C)[C@@H](O[C@H]2C[C@@](C)(OC)[C@@H](O)[C@H](C)O2)[C@H](C)[C@@H](O[C@@H]2O[C@H](C)C[C@H](N(C)C)[C@H]2O)[C@](C)(O)C[C@@H](C)C(=O)[C@H](C)[C@@H](O)[C@]1(C)O [Erythromycin] | 16 | intermediate resistance | INT |
| CC1(C)S[C@@H]2[C@H](NC(=O)C(C(=O)O)c3ccccc3)C(=O)N2[C@H]1C(=O)O (stereo partly drawn) [Carbenicillin] | 15 | resistant | RES |
| CCC[C@@H]1C[C@@H](C(=O)N[C@@H]([C@H]2O[C@H](SC)[C@H](O)[C@@H](O)[C@H]2O)[C@@H](C)O)N(C)C1 [Lincomycin] | 12 | resistant | RES |
| CO/N=C(\C(=O)N[C@@H]1C(=O)N2C(C(=O)O)=C(CSc3nc(=O)c(=O)[nH]n3C)CS[C@H]12)c1csc(N)n1 [Ceftriaxone] | 28 | sensitive | SEN |
